# Measured values as given in the NIST ThermoML archive (doi:10.1016/j.fluid.2005.06.010).
# Numbers after ± are expanded uncertainties.
# Test: xn = mol fraction of the nth substance listed
# Settings: Fluid (supercritical or subcritical phases), Vibrating tube method
compound,measurement,setting,value
c1ccc2ccccc2c1 [naphthalene] + O=C=O,mass density,"318.03 K, 16010 kPa, x1 = 0.0198",802.31 ± 0.63 kg/m3
same,mass density,"318.03 K, 16995 kPa, x1 = 0.0198",813.73 ± 0.6 kg/m3
same,mass density,"318.03 K, 17979 kPa, x1 = 0.0198",824.06 ± 0.58 kg/m3
same,mass density,"318.03 K, 18989 kPa, x1 = 0.0198",833.74 ± 0.57 kg/m3
same,mass density,"318.03 K, 20016 kPa, x1 = 0.0198",842.78 ± 0.56 kg/m3
same,mass density,"318.03 K, 20955 kPa, x1 = 0.0198",850.43 ± 0.54 kg/m3
same,mass density,"318.03 K, 21951 kPa, x1 = 0.0198",858.04 ± 0.53 kg/m3
same,mass density,"318.03 K, 22703 kPa, x1 = 0.0198",863.41 ± 0.54 kg/m3
same,mass density,"318.07 K, 18008 kPa, x1 = 0.0235",829.61 ± 0.58 kg/m3
same,mass density,"318.07 K, 18511 kPa, x1 = 0.0235",834.41 ± 0.57 kg/m3
same,mass density,"318.07 K, 19022 kPa, x1 = 0.0235",839.2 ± 0.56 kg/m3
same,mass density,"318.07 K, 19528 kPa, x1 = 0.0235",843.76 ± 0.56 kg/m3
same,mass density,"318.07 K, 20035 kPa, x1 = 0.0235",848.15 ± 0.55 kg/m3
same,mass density,"318.07 K, 20519 kPa, x1 = 0.0235",852.18 ± 0.55 kg/m3
same,mass density,"318.07 K, 21009 kPa, x1 = 0.0235",856.16 ± 0.55 kg/m3
same,mass density,"318.07 K, 22034 kPa, x1 = 0.0235",864 ± 0.54 kg/m3
same,mass density,"318.07 K, 23008 kPa, x1 = 0.0235",870.96 ± 0.53 kg/m3
same,mass density,"318.07 K, 23971 kPa, x1 = 0.0235",877.49 ± 0.52 kg/m3
same,mass density,"318.07 K, 24665 kPa, x1 = 0.0235",882.02 ± 0.52 kg/m3
same,mass density,"318.08 K, 12165 kPa, x1 = 0.0144",719.15 ± 1 kg/m3
same,mass density,"318.08 K, 12357 kPa, x1 = 0.0144",724.21 ± 0.92 kg/m3
same,mass density,"318.08 K, 12493 kPa, x1 = 0.0144",727.5 ± 0.86 kg/m3
same,mass density,"318.08 K, 13016 kPa, x1 = 0.0144",739.71 ± 0.79 kg/m3
same,mass density,"318.08 K, 13476 kPa, x1 = 0.0144",749.33 ± 0.76 kg/m3
same,mass density,"318.08 K, 14019 kPa, x1 = 0.0144",759.61 ± 0.71 kg/m3
same,mass density,"318.08 K, 14983 kPa, x1 = 0.0144",775.77 ± 0.67 kg/m3
same,mass density,"318.08 K, 14983 kPa, x1 = 0.0173",784.34 ± 0.66 kg/m3
same,mass density,"318.08 K, 15997 kPa, x1 = 0.0144",790.28 ± 0.63 kg/m3
same,mass density,"318.08 K, 16066 kPa, x1 = 0.0173",799.24 ± 0.63 kg/m3
same,mass density,"318.08 K, 16997 kPa, x1 = 0.0144",803.04 ± 0.61 kg/m3
same,mass density,"318.08 K, 16997 kPa, x1 = 0.0173",810.5 ± 0.61 kg/m3
same,mass density,"318.08 K, 17981 kPa, x1 = 0.0144",814.33 ± 0.59 kg/m3
same,mass density,"318.08 K, 18010 kPa, x1 = 0.0173",821.53 ± 0.59 kg/m3
same,mass density,"318.08 K, 18981 kPa, x1 = 0.0144",824.7 ± 0.57 kg/m3
same,mass density,"318.08 K, 19014 kPa, x1 = 0.0173",831.51 ± 0.57 kg/m3
same,mass density,"318.08 K, 20037 kPa, x1 = 0.0173",840.84 ± 0.56 kg/m3
same,mass density,"318.08 K, 20042 kPa, x1 = 0.0144",834.82 ± 0.56 kg/m3
same,mass density,"318.08 K, 20902 kPa, x1 = 0.0144",842.42 ± 0.55 kg/m3
same,mass density,"318.08 K, 20967 kPa, x1 = 0.0173",848.79 ± 0.55 kg/m3
same,mass density,"318.08 K, 21935 kPa, x1 = 0.0144",850.92 ± 0.54 kg/m3
same,mass density,"318.08 K, 22018 kPa, x1 = 0.0173",857.06 ± 0.54 kg/m3
same,mass density,"318.08 K, 22960 kPa, x1 = 0.0144",858.89 ± 0.53 kg/m3
same,mass density,"318.08 K, 22995 kPa, x1 = 0.0173",864.32 ± 0.53 kg/m3
same,mass density,"318.08 K, 23932 kPa, x1 = 0.0144",865.94 ± 0.52 kg/m3
same,mass density,"318.08 K, 23962 kPa, x1 = 0.0173",871.14 ± 0.52 kg/m3
same,mass density,"318.08 K, 24764 kPa, x1 = 0.0173",876.56 ± 0.52 kg/m3
same,mass density,"318.08 K, 24829 kPa, x1 = 0.0144",872.11 ± 0.52 kg/m3
same,mass density,"318.11 K, 9524 kPa, x1 = 0.0065",513.41 ± 2.1 kg/m3
same,mass density,"318.11 K, 9601 kPa, x1 = 0.0049",505.2 ± 3.1 kg/m3
same,mass density,"318.11 K, 9622 kPa, x1 = 0.0065",527.97 ± 3.1 kg/m3
same,mass density,"318.11 K, 9697 kPa, x1 = 0.0049",521.21 ± 3.1 kg/m3
same,mass density,"318.11 K, 9722 kPa, x1 = 0.0065",543.81 ± 3 kg/m3
same,mass density,"318.11 K, 9775 kPa, x1 = 0.0049",532.95 ± 2.2 kg/m3
same,mass density,"318.11 K, 9801 kPa, x1 = 0.0065",554.22 ± 2.5 kg/m3
same,mass density,"318.11 K, 9898 kPa, x1 = 0.0065",566.44 ± 2.4 kg/m3
same,mass density,"318.11 K, 9974 kPa, x1 = 0.0049",559.06 ± 2.1 kg/m3
same,mass density,"318.11 K, 9975 kPa, x1 = 0.0065",575.84 ± 2.3 kg/m3
same,mass density,"318.11 K, 10075 kPa, x1 = 0.0065",586.3 ± 2.1 kg/m3
same,mass density,"318.11 K, 10181 kPa, x1 = 0.0065",596.66 ± 2.1 kg/m3
same,mass density,"318.11 K, 10293 kPa, x1 = 0.0065",606.9 ± 2.1 kg/m3
same,mass density,"318.11 K, 10405 kPa, x1 = 0.0065",616.37 ± 2 kg/m3
same,mass density,"318.11 K, 10523 kPa, x1 = 0.0049",610.25 ± 1.6 kg/m3
same,mass density,"318.11 K, 10629 kPa, x1 = 0.0065",632.61 ± 1.8 kg/m3
same,mass density,"318.11 K, 10763 kPa, x1 = 0.0093",652.77 ± 1.1 kg/m3
same,mass density,"318.11 K, 10830 kPa, x1 = 0.0065",645.51 ± 1.6 kg/m3
same,mass density,"318.11 K, 10978 kPa, x1 = 0.0093",663.58 ± 1.1 kg/m3
same,mass density,"318.11 K, 10980 kPa, x1 = 0.0049",639.71 ± 1.4 kg/m3
same,mass density,"318.11 K, 11049 kPa, x1 = 0.0065",657.73 ± 1.4 kg/m3
same,mass density,"318.11 K, 11516 kPa, x1 = 0.0065",679.19 ± 1.2 kg/m3
same,mass density,"318.11 K, 11989 kPa, x1 = 0.0093",702.27 ± 0.99 kg/m3
same,mass density,"318.11 K, 12007 kPa, x1 = 0.0049",684.72 ± 1.1 kg/m3
same,mass density,"318.11 K, 12072 kPa, x1 = 0.0065",699.49 ± 1.1 kg/m3
same,mass density,"318.11 K, 12537 kPa, x1 = 0.0065",713.68 ± 1 kg/m3
same,mass density,"318.11 K, 12998 kPa, x1 = 0.0093",729.76 ± 0.84 kg/m3
same,mass density,"318.11 K, 13017 kPa, x1 = 0.0065",726.51 ± 0.89 kg/m3
same,mass density,"318.11 K, 13024 kPa, x1 = 0.0049",715.37 ± 0.89 kg/m3
same,mass density,"318.11 K, 13986 kPa, x1 = 0.0049",737.86 ± 0.78 kg/m3
same,mass density,"318.11 K, 14066 kPa, x1 = 0.0093",752.41 ± 0.76 kg/m3
same,mass density,"318.11 K, 14069 kPa, x1 = 0.0065",749.53 ± 0.8 kg/m3
same,mass density,"318.11 K, 14967 kPa, x1 = 0.0093",768.35 ± 0.7 kg/m3
same,mass density,"318.11 K, 14970 kPa, x1 = 0.0049",756.77 ± 0.72 kg/m3
same,mass density,"318.11 K, 15010 kPa, x1 = 0.0065",766.43 ± 0.75 kg/m3
same,mass density,"318.11 K, 15879 kPa, x1 = 0.0065",779.94 ± 0.7 kg/m3
same,mass density,"318.11 K, 15977 kPa, x1 = 0.0049",773.28 ± 0.68 kg/m3
